Results as given in patent US9756860B2, “Antimicrobial composition of ortho phenylphenol and silver” (Rohm and Haas Company, priority 2011, dated 2017).
Like-named read-outs stand apart in the source and are kept apart here.

Key:
Format in all cases: cell-based
[1] = tested on: Candida albicans ATCC#10203; assay: MIC / synergy index test in 96 well microtiter plates, yeast; settings: C. albicans, ppm active; for MIC: Candida albicans, ATCC10203, alone, read-out: MIC of compound acting alone (CA / CB)
Method: (§1) Ortho phenylphenol and silver are evaluated for synergy by determining the synergy index (S.I.) of the combination. Synergy index is calculated based on minimum inhibitory concentrations (MIC) of two antimicrobial compounds (A and B) alone and in combinations. The tests organisms are Gram negative bacteria (Pseudomonas aeruginosa), Gram positive bacteria (Staphylococcus aureus), yeast (Candida albicans) and mold (Aspergillus niger). Contact time for the bacteria is 24 and 48 hours, yeast is 48 and 72 hrs, and 3 and 7 days for mold. The test is carried out in 96 well microtiter plates.
(§2) SI is calculated as follows: Ca/CA+Cb/CB=Synergy Index (“SI”) Wherein: • CA=concentration of compound A in ppm, acting alone, which produced an end point (MIC of Compound A). • Ca=concentration of compound A in ppm, in the mixture, which produced an end point. • CB=concentration of compound B in ppm, acting alone, which produced an end point (MIC of Compound B). • Cb=concentration of compound B in ppm, in the mixture, which produced an end point. When the sum of Ca/CA and Cb/CB is greater than one, antagonism is indicated.

[2] = tested on: Staphylococcus aureus ATCC# 6538; assay: MIC / synergy index test in 96 well microtiter plates, Gram positive bacteria; settings: S. aureus, ppm active; for MIC: Staphylococcus aureus, ATCC6538, alone, read-out: MIC of compound acting alone (CA / CB)
Method: as §1, §2

[3] = tested on: Aspergillus niger ATCC# 16404; assay: MIC / synergy index test in 96 well microtiter plates, mold; settings: A. niger, ppm active
Method: as §1, §2

[4] = tested on: Pseudomonas aeruginosa ATCC # 15442; assay: MIC / synergy index test in 96 well microtiter plates, Gram negative bacteria; settings: Ps. aeruginosa, ppm active; for MIC: Pseudomonas aeruginosa, ATCC15442, alone, read-out: MIC of compound acting alone (CA / CB)
Method: as §1, §2

SMILES | MIC of compound acting alone (CA / CB) ([1]; contact time 48 hrs) | MIC of compound acting alone (CA / CB) ([1]; contact time 72 hrs) | MIC of compound acting alone (CA / CB) ([2]; contact time 24 hrs) | MIC of compound acting alone (CA / CB) ([2]; contact time 48 hrs) | MIC of compound acting alone (CA / CB) ([3]; contact time 3rd day) | MIC of compound acting alone (CA / CB) ([3]; contact time 7th day) | MIC of compound acting alone (CA / CB) ([4]; contact time 24 hrs) | MIC of compound acting alone (CA / CB) ([4]; contact time 48 hrs) | MIC ([1]; contact time 48 hrs) | MIC ([1]; contact time 72 hrs) | MIC ([2]; contact time 24 hrs) | MIC ([2]; contact time 48 hrs) | MIC ([3]; Aspergillus niger, ATCC16404, contact time 7th day, alone, read-out: MIC of compound acting alone (CA / CB)) | MIC ([4]; contact time 24 hrs) | MIC ([4]; contact time 48 hrs)
O=[N+]([O-])[O-].[Ag+] [AgNO3, Silver Nitrate] | 10 ppm | 10 ppm | 6 ppm | 8 ppm | 3 ppm | 10 ppm | 0.4 ppm | 1 ppm |  |  |  |  |  |  | 
Oc1ccccc1-c1ccccc1 [OPP, ortho-phenylphenol] |  |  |  |  | 75 ppm |  |  |  | 150 µg/mL | 150 µg/mL | 200 µg/mL | 200 µg/mL | 75 µg/mL | 500 µg/mL | 500 µg/mL
